{"source": "paper PMC8382845", "about": "“High-content image-based analysis and proteomic profiling identifies Tau phosphorylation inhibitors in a human iPSC-derived glutamatergic neuronal model of tauopathy” (Scientific Reports, 2021)", "target": "T1, GSK3α (Homo sapiens, UniProt P49840)", "T1 construct": "gene GSK3A", "T1 sequence (P49840 2-483)": "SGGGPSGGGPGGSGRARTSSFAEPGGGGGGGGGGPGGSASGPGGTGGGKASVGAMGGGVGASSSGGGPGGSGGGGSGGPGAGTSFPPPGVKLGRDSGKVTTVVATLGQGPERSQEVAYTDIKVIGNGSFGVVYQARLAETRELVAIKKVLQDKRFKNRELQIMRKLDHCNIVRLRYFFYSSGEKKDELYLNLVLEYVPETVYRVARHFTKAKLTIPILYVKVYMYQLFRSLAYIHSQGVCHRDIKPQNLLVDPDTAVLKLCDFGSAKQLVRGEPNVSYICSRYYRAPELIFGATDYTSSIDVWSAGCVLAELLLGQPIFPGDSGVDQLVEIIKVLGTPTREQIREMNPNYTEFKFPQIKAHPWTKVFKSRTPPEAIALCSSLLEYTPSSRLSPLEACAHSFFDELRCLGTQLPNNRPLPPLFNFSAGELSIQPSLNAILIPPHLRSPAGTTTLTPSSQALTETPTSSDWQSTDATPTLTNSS"}
{"compound": "Cc1c[nH]c(-c2cnc(NCCNc3ccc(C#N)cn3)nc2-c2ccc(Cl)cc2Cl)n1", "note": "[CHIR-99021]", "values": [{"measurement": "MIB-MS chemoproteomic competition (loss of kinase binding to inhibitor beads) af", "value": "This effect of CHIR-99021 was similar between the two GSK isoforms, GSK3α and GSK3β (Fig. 5C) in both NPC and neurons"}]}
